The values that follow come from patent US20250345483A1, “WIDE RANGE SYNTHETIC PEPTIDE NUCLEIC ACIDS AND THEIR APPLICATIONS” (Carilion Clinic, priority 2024, published 2025).

For this test, the system named is gentamicin-resistant P. aeruginosa, Pa383-ΔrahU::GM. The test is described as follows: Biofilm biomass, aqueous or dried onto 96-well plates. The test is classed as cell-based, Pseudomonas aeruginosa. The following applies: 32 h incubation. The protocol:
An equimolar (10 μM per antisense-PNA) cocktail of the antisense-PNAs rsmA 0, amrZ 0, and rpoS 0 with 50% methanol (MeOH) (total volume: 60 μL) was dried onto a 96-well clear flat bottom polystyrene tissue culture-treated microplate in a Fisherbrand™ Isotemp™ Digital Dry Bath/Block Heater at 37° C. 60 μL of 100 μg/mL gentamicin was also dried onto wells. Gentamicin-resistant P. aeruginosa, Pa383-ΔrahU::GM was subcultured as described above (Rao, J. et al., 2011)
Biofilms were stained with 175 μL 0.1% crystal violet (CV), rinsed with sterile water until the water ran clear, solubilized in 100 μL of 33% glacial acetic acid (GAA), and absorbance was measured using a spectrophotometer at 590 nm (Wilson, C. et al., 2017).

As to gentamicin, the average biofilm biomass result by setting is: (aq, vs untreated in M9+ media) “no statistically significant difference”; (dried in MeOH, vs dried MeOH control wells) “no statistically significant difference”.
